Data as given in PubChem BioAssay AID330 (DTP/NCI, 2004).
Values joined by “and” are separate entries in the source; they are usually repeats but may differ in a detail not shown here. Equal values may be shown once. Toxic doses and inconclusive results are not listed. How the source made its calls: active means survival T/C of 150% or more; inactive means T/C below 125% in these data. Peptide text beside a SMILES is read from it. * marks the point of attachment. Cbz = O=C(OCc1ccccc1)*

Tested on: P388 leukemia ip, CD2F1 mice, survival T/C
Assay: NCI In Vivo Anticancer Drug Screen. Data for tumor model P388 Leukemia (intraperitoneal) in CD2F1 (CDF1) mice
Details: endpoint: median survival time, higher = longer survival
Procedure, shortened: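 Mice carrying the transplanted tumor received test compound or vehicle. Survival was recorded in each group, and the value is the treated-group measurement divided by that of the vehicle-treated control group.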

[1] = dose: 60.0 mg/kg/injection, schedule: Q01DX005 (ip), vehicle: Klucel (hydroxypropylcellulose) (HPC)
[2] = dose: 120.0 mg/kg/injection, schedule: Q01DX005 (ip), vehicle: Klucel (hydroxypropylcellulose) (HPC)
[3] = dose: 240.0 mg/kg/injection, schedule: Q01DX005 (ip), vehicle: Klucel (hydroxypropylcellulose) (HPC)
[4] = dose: 50.0 mg/kg/injection, schedule: Q01DX005 (ip), vehicle: saline with Tween-80
[5] = dose: 100.0 mg/kg/injection, schedule: Q01DX005 (ip), vehicle: saline with Tween-80
[6] = dose: 50.0 mg/kg/injection, schedule: Q01DX009 (ip), vehicle: saline with Tween-80
[7] = dose: 100.0 mg/kg/injection, schedule: Q01DX009 (ip), vehicle: saline with Tween-80
[8] = dose: 100.0 mg/kg/injection, schedule: Q04DX003 (ip), vehicle: saline with Tween-80
[9] = dose: 200.0 mg/kg/injection, schedule: Q04DX003 (ip), vehicle: saline with Tween-80
[10] = dose: 100.0 mg/kg/injection, schedule: Q01DX009 (ip), vehicle: Klucel (hydroxypropylcellulose) (HPC)
[11] = dose: 200.0 mg/kg/injection, schedule: Q01DX009 (ip), vehicle: Klucel (hydroxypropylcellulose) (HPC)
[12] = dose: 60.0 mg/kg/injection, schedule: Q01DX005 (ip), vehicle: saline with Tween-80
[13] = dose: 120.0 mg/kg/injection, schedule: Q01DX005 (ip), vehicle: saline with Tween-80
[14] = dose: 240.0 mg/kg/injection, schedule: Q01DX005 (ip), vehicle: saline with Tween-80
[15] = dose: 50.0 mg/kg/injection, schedule: Q01DX005 (ip), vehicle: Klucel (hydroxypropylcellulose) (HPC)
[16] = dose: 100.0 mg/kg/injection, schedule: Q01DX005 (ip), vehicle: Klucel (hydroxypropylcellulose) (HPC)
[17] = dose: 200.0 mg/kg/injection, schedule: Q01DX005 (ip), vehicle: Klucel (hydroxypropylcellulose) (HPC)
[18] = dose: 50.0 mg/kg/injection, schedule: Q01DX009 (ip), vehicle: Klucel (hydroxypropylcellulose) (HPC)
[19] = dose: 200.0 mg/kg/injection, schedule: Q01DX005 (ip), vehicle: saline with Tween-80
[20] = dose: 50.0 mg/kg/injection, schedule: Q01DX009 (ip), vehicle: saline
[21] = dose: 100.0 mg/kg/injection, schedule: Q01DX009 (ip), vehicle: saline
[22] = dose: 200.0 mg/kg/injection, schedule: Q01DX009 (ip), vehicle: saline

Measured: T/C

O=C1NC(c2ccccc2)(c2ccccc2)C(=O)N1CN1CCc2ccccc2C1
inactive: [1] 90 % of control | [2] 91 % of control | [3] 90 % of control

CC(C)=CCC/C(C)=C/CC/C(C)=C/CC/C(C)=C/C=C/C=C(\C)CC/C=C(\C)CC/C=C(\C)CCC=C(C)C
inactive: dose: 17.5 mg/kg/injection, schedule: Q01DX005 (ip), vehicle: saline 101 % of control | dose: 35.0 mg/kg/injection, schedule: Q01DX005 (ip), vehicle: saline 100 % of control | dose: 70.0 mg/kg/injection, schedule: Q01DX005 (ip), vehicle: saline 95 % of control | dose: 140.0 mg/kg/injection, schedule: Q01DX005 (ip), vehicle: saline 104 % of control

O=C1OC(c2ccccc2)(c2ccccc2)CC1CC(O)(c1ccccc1)c1ccccc1 (stereo unspecified)
inactive: [4] 98 % of control | [5] 90 % of control

CC(=O)Nc1ccccc1C(C)=O
inactive: [6] 91 % of control | dose: 50.0 mg/kg/injection, schedule: Q04DX003 (ip), vehicle: saline with Tween-80 95 % of control | [7] 95 % of control | [8] 100 % of control | dose: 200.0 mg/kg/injection, schedule: Q01DX009 (ip), vehicle: saline with Tween-80 100 % of control | [9] 100 % of control

COc1ccc(NC(C)=NC(C)C)cc1
inactive: dose: 12.5 mg/kg/injection, schedule: Q01DX009 (ip), vehicle: saline with Tween-80 101 % of control and 88 % of control | dose: 25.0 mg/kg/injection, schedule: Q01DX009 (ip), vehicle: saline with Tween-80 92 % of control | dose: 50.0 mg/kg/injection, schedule: Q01DX009 (ip), vehicle: saline + Tween-80 + alcohol 98 % of control | [6] 100 % of control and 101 % of control

CSc1nc(N)nc2nc[nH]c12
inactive: [8] 104 % of control | [9] 122 % of control

O=C1S/C(=C2\C(=O)N(CN3CCCCC3)c3ccc(Br)cc32)C(=O)N1CN1CCCCC1
inactive: [1] 100 % of control | [2] 101 % of control | [3] 99 % of control

CCCCCCCCCCCCOC(=O)c1ccc(Br)cc1
inactive: [10] 104 % of control | [11] 102 % of control

O=C(NC1CCCCC1(O)c1ccc([N+](=O)[O-])cc1)C(Cl)Cl (stereo unspecified)
inactive: dose: 100.0 mg/kg/injection, schedule: Q04DX002 (ip), vehicle: Klucel (hydroxypropylcellulose) (HPC) 100 % of control | dose: 200.0 mg/kg/injection, schedule: Q04DX002 (ip), vehicle: Klucel (hydroxypropylcellulose) (HPC) 100 % of control

CC1=CC=c2ccc3c(c2[N-]1)[N-]C(C)=CC=3.CC1=CC=c2ccc3c(c2[N-]1)[N-]C(C)=CC=3.O=[N+]([O-])O.[Cu+]
inactive: dose: 6.25 mg/kg/injection, schedule: Q04DX002 (ip), vehicle: suspension in saline 101 % of control | dose: 12.5 mg/kg/injection, schedule: Q04DX002 (ip), vehicle: suspension in saline 103 % of control

COC(=O)c1nnc(C(=O)OC)c2c1[nH]c1ccccc12
inactive: [12] 96 % of control | [13] 103 % of control | [14] 94 % of control

CCOC(=O)Nc1ccc2nc(N3CCCCC3)sc2c1
inactive: [6] 96 % of control | [7] 90 % of control

COc1ccc(/C=N/NC(=O)CNC(=O)Nc2n[nH]c(=S)s2)cc1
inactive: [15] 100 % of control | [16] 104 % of control | [17] 100 % of control

C[C@]12CCC[C@H](O)[C@H]1O2
inactive: dose: 100.0 mg/kg/injection, schedule: Q04DX003 (ip), vehicle: saline 104 % of control | dose: 200.0 mg/kg/injection, schedule: Q04DX003 (ip), vehicle: saline 102 % of control | dose: 400.0 mg/kg/injection, schedule: Q04DX003 (ip), vehicle: saline 102 % of control

CN(C)c1cccc2c(S(=O)(=O)NCCCCCCCCCCCCN)cccc12
inactive: dose: 100.0 mg/kg/injection, schedule: Q01DX001 (ip), vehicle: saline + Tween-80 + alcohol 105 % of control

O=S(=O)(OCC#CCOS(=O)(=O)c1ccc(Cl)c(Cl)c1)c1ccc(Cl)c(Cl)c1
inactive: dose: 12.5 mg/kg/injection, schedule: Q01DX009 (ip), vehicle: Klucel (hydroxypropylcellulose) (HPC) 95 % of control | dose: 25.0 mg/kg/injection, schedule: Q01DX009 (ip), vehicle: Klucel (hydroxypropylcellulose) (HPC) 92 % of control | [18] 91 % of control | [10] 92 % of control

COc1cc(C/C(=C/c2ccc(OC)c3occc23)[N+](=O)[O-])cc(OC)c1OC
inactive: [4] 98 % of control | [5] 107 % of control | [19] 113 % of control

O=C(c1ccccc1)c1cc(Cl)ccc1NCC(O)COc1cccc2ccccc12 (stereo unspecified)
inactive: [12] 100 % of control | [13] 91 % of control | [14] 88 % of control

O=C(NCCCN1CCOCC1)Nc1ccc(Cc2ccc(NC(=O)NCCCN3CCOCC3)cc2)cc1
inactive: [18] 94 % of control | [10] 94 % of control | [11] 94 % of control

Cc1cc(O[Si](C)(C)C)nc(O[Si](C)(C)C)n1
inactive: [12] 106 % of control | [13] 110 % of control | [14] 105 % of control

Nc1nc(N)n2c(N)nnc2n1
inactive: [20] 105 % of control | [21] 107 % of control | [22] 102 % of control

CC1(C(O)CO)C=C2CCC3C(C)(C)C(O)CCC3(C)C2CC1 (stereo unspecified)
inactive: dose: 2.25 mg/kg/injection, schedule: Q01DX009 (ip), vehicle: Klucel (hydroxypropylcellulose) (HPC) 108 % of control | dose: 4.5 mg/kg/injection, schedule: Q01DX009 (ip), vehicle: Klucel (hydroxypropylcellulose) (HPC) 103 % of control | dose: 9.0 mg/kg/injection, schedule: Q01DX009 (ip), vehicle: Klucel (hydroxypropylcellulose) (HPC) 103 % of control | dose: 18.0 mg/kg/injection, schedule: Q01DX009 (ip), vehicle: Klucel (hydroxypropylcellulose) (HPC) 93 % of control

CC(C)CC(NC(=O)C(Cc1ccccc1)NC(=O)OCc1ccccc1)C(=O)NC(C)C(=O)O (stereo not drawn) (Cbz-Phe-Leu-Ala-OH; configuration not given here)
inactive: [4] 95 % of control | [5] 97 % of control | [19] 104 % of control

Cc1ccc(C(=O)C(CN(C)C)CN(C)C)cc1
inactive: dose: 3.12 mg/kg/injection, schedule: Q01DX009 (ip), vehicle: saline 101 % of control and 90 % of control | dose: 3.13 mg/kg/injection, schedule: Q01DX009 (ip), vehicle: saline 112 % of control | dose: 6.25 mg/kg/injection, schedule: Q01DX009 (ip), vehicle: saline 110 % of control [middle of 4 runs] | dose: 12.5 mg/kg/injection, schedule: Q01DX009 (ip), vehicle: saline 107 % of control and 118 % of control

CC1(C)CCCC2(C)C1CCC13OC1(C=O)C(C=O)=CCC23 (stereo unspecified)
inactive: dose: 1.25 mg/kg/injection, schedule: Q01DX005 (ip), vehicle: saline + alcohol 99 % of control | dose: 2.5 mg/kg/injection, schedule: Q01DX005 (ip), vehicle: saline + alcohol 98 % of control | dose: 5.0 mg/kg/injection, schedule: Q01DX005 (ip), vehicle: saline + alcohol 99 % of control | dose: 10.0 mg/kg/injection, schedule: Q01DX005 (ip), vehicle: saline + alcohol 99 % of control | dose: 20.0 mg/kg/injection, schedule: Q01DX005 (ip), vehicle: saline + alcohol 104 % of control

CC(=O)CC1(O)C(=O)C(C(C)(C)C)=CC2(C(C)(C)C)OC12 (stereo unspecified)
inactive: [20] 102 % of control | [21] 95 % of control | [22] 95 % of control

COc1ccc(N=C(CC(C)C)C2C(=O)c3ccccc3C2=O)cc1
inactive: [15] 100 % of control | [16] 109 % of control | [17] 104 % of control

CC(=O)C1CCC(=O)N1C(C)=O (stereo unspecified)
inactive: [20] 100 % of control | [21] 106 % of control | [22] 114 % of control

CCCNCc1cccc2ccnc(C)c12
inactive: dose: 50.0 mg/kg/injection, schedule: Q01DX005 (ip), vehicle: saline 109 % of control | dose: 100.0 mg/kg/injection, schedule: Q01DX005 (ip), vehicle: saline 104 % of control | dose: 200.0 mg/kg/injection, schedule: Q01DX005 (ip), vehicle: saline 101 % of control

CSc1nnc(CCC(=O)Nc2ccc(Cl)cc2Cl)o1
inactive: [12] 106 % of control | [13] 108 % of control
